The values below come from article PMC5844890 (Scientific Reports, 2018).

By IC50 is commonly meant the midpoint of a concentration-inhibition curve. As a reminder, the melting point is the temperature of the solid-liquid transition.

Series [1] deals with MDA-MB-231 cells. In words: Anti-proliferative activity, MDA-MB-231 breast carcinoma cells (Coulter counting). In kind it is cell-based. The following applies: Homo sapiens, MDA-MB-231, 72 h, read-out: Tumor cells IC50 MDA-MB-231. The source says: (§1) The anti-proliferative activity of the synthesized benzofurane derivatives was studied in three human cancer cell lines [breast carcinoma (MDA-MB-231), lymphoblastic leukemia (CEM) and cervical carcinoma (HeLa) cells] and one endothelial cell line [human microvascular endothelial cells (HMEC-1)].
(§2) The human microvascular endothelial cell line HMEC-1 was obtained at passage 12 from the Centers for Disease Control and Prevention (Atlanta, GA, USA) and used from passage 17 till 27. Human breast carcinoma (MDA-MB-231), human cervical carcinoma (HeLa) and human T-lymphoid (CEM) cells were obtained from ATCC (Middlesex, UK). Cell lines were maintained in culture for up to 3 months and grown in DMEM, supplemented with 10% FBS, 0.01 M Hepes and 1 mM sodium pyruvate. All cells were cultured in a humidified 5% CO2 incubator at 37 °C.
(§3) HMEC-1 cells were seeded in 48-well plates at 20,000 cells/well. After 24 h, 5-fold dilutions of the compounds were added. The cells were allowed to proliferate 4 days in the presence of the compounds, trypsinized, and counted by means of a Coulter counter (Analis, Belgium). HeLa and MDA-MB-231 cells were seeded in 48-well plates at 10,000 cells/well. After 24 h, different concentrations of the compounds were added. After 3 days of incubation, the cells were trypsinized and counted in a Coulter counter. Suspension cells (human lymphoid Cem cells) were seeded in 96-well plates at 60,000 cells/well in the presence of different concentrations of the compounds, allowed to proliferate for 96 h, and counted in a Coulter counter. The 50% inhibitory concentration (IC50) was defined as the compound concentration required to reduce cell proliferation by 50%.

Series [2] deals with HMEC-1 cells. In words: Anti-proliferative activity, HMEC-1 microvascular endothelial cells (Coulter counting). The following applies: Homo sapiens, HMEC-1, 96 h, read-out: Endothelial cells IC50 HMEC-1. In kind it is cell-based.
Excerpt: as §1, §2, §3

For the next series, the system named is CEM cells. In words: Anti-proliferative activity, CEM lymphoblastic leukemia cells (Coulter counting). The following applies: Homo sapiens, CCRF-CEM, 96 h, read-out: Tumor cells IC50 CEM. In kind it is cell-based.
Excerpt: as §1, §2, §3

A further series deals with HeLa cells. In words: Anti-proliferative activity, HeLa cervical carcinoma cells (Coulter counting). In kind it is cell-based. The following applies: Homo sapiens, 72 h, read-out: Tumor cells IC50 HeLa.
Excerpt: as §1, §2, §3

In the next series the test system is A2780AD cells. The series can be described thus: Anti-proliferative activity, A2780AD (MDR overexpressing P-glycoprotein) ovarian carcinoma cells. The following applies: P-glycoprotein overexpressing resistant line, mean ± standard error of three independent experiments, read-out: A2780 AD IC50. It is filed as cell-based, human. The source says: (§4) One of the most relevant causes of tumor resistance to chemotherapy is the overexpression of membrane pumps which remove the chemotherapeutic agents from the treated cells.

The next series has as its system A2780 cells. The series can be described thus: Anti-proliferative activity, A2780 ovarian carcinoma cells. It is filed as cell-based, human. The following applies: mean ± standard error of three independent experiments.
Excerpt: as §4

Series [3] relates to MDA-MB-231 cells. The series can be described thus: Cell cycle analysis (propidium iodide, flow cytometry). It is filed as cell-based, human. The following applies: 0.3 µM, 24 h treatment. The procedure: Tubulin-binding agents interfere with mitotic spindle formation during cell division. […] Thus, we investigated whether 27 and 28 affect the progression of human breast cancer MDA-MB-231 cells through the cell cycle. […] In contrast, compounds 27 and 28 arrested the cell cycle in the M phase (mitosis) at concentrations as low as 0.03 and 0.1 μM (for compound 27 and 28 respectively).
(§5) Figure 6 Mechanism of action of the benzofurane derivatives. (A) Inhibition of cell cycle progression. MDA-MB-231 cells were treated with DMSO (control) or compounds 8, 27 or 28 for 24 h. Next, the cells were harvested, stained with propidium iodide (PI), and cell cycle distribution was evaluated by flow cytometry. Percentages of cells in the different phases of the cell cycle are indicated. (B) Caspase-3 activity. MDA-MB-231 cells were seeded in 48-well plates at 40,000 cells/cm². After 24 h, different concentrations of compounds 8, 27 or 28 and 2 µM of the caspase-3 substrate DEVD-NucView488 were added. After 16 h, the cells were incubated with 2 µg/ml Hoechst 33342 to stain the nucleus, and imaged. (C) Disruption of the vascular network. HMEC-1 cells were cultured on matrigel for 3 h to allow the formation of tube-like structures. Next, different concentrations of compounds were added. Upper panel: After 90 min, pictures were taken and the tubular network was scored (3: intact network, 0: network completely destroyed). Bars show average ± SEM (n = 4). Lower panel: Microscopic pictures of the tubular network 3 h after addition of compound.
MDA-MB-231 cells were seeded in 6-well plates at 125,000 cells/well in DMEM with 10% FBS. After 24 h, the cells were exposed to different concentrations of the compounds. After 24 h, the DNA of the cells was stained with propidium iodide using the CycleTEST PLUS DNA Reagent Kit (BD Biosciences, San Jose, CA). The DNA content of the stained cells was assessed by flow cytometry on a FACSCalibur flow cytometer and analyzed with CellQuest software (BD Biosciences) within 3 h after staining. Cell debris and clumps were excluded from the analysis by appropriate dot plot gating. Percentages of sub-G1, G1, S, and G2/M cells were estimated using appropriate region markers.

In series [4] the test system is MDA-MB-231 cells. In words: Caspase-3 activity / apoptosis in live cells (fluorescence microscopy). In kind it is cell-based, human. The following applies: 1 µM, after 24 h. The procedure: as §5
To confirm the capacity of compounds 27 and 28 to induce apoptosis, MDA-MB-231 cells were treated with the compounds for 24 h in the presence of NucView® 530 Caspase-3. This substrate is cleaved by active caspase-3 activity (the main executioner enzyme during apoptosis) to generate a fluorescent derivative that is analyzed using fluorescence microscopy.
MDA-MB-231 cells were seeded at 40,000 cells/cm². After 24 h, cells were incubated in Fluorobrite DMEM (Gibco), containing the compound and 2 µM of the caspase-3 substrate DEVD-NucView488 (Biotium, Hayward, CA). After 16 h, the DNA was stained with Hoechst33342 and the cells were imaged by fluorescence microscopy.

Series [5] deals with HMEC-1 cells. The series can be described thus: IncuCyte scratch wound migration assay with PI uptake. In kind it is cell-based. The method, then:
Proper tubulin organization is not only required for cell division but also for cell motility and migration. Therefore, we evaluated the capacity of the compounds to inhibit the migration of HMEC-1 endothelial cells. To this end, we used the 96-well IncuCyte® scratch wound assay. After the creation of a cell-free zone (wound) in a confluent cell monolayer, compounds were added, and relative wound density was measured every minute and visualized in time-course plots. PI was added to all wells to visualize toxicity over time, i.e. only dead cells take up this cell-impermeable dye.
Figure 7 Inhibition of HMEC-1 migration. The 96-well IncuCyte® scratch wound assay was used to create a cell-free zone (wound) in a confluent cell monolayer. Next, compounds were added and the relative wound density was measured every minute and visualized in time-course plots (left panels). PI is added to all wells to visualize toxicity over time, i.e. only dead cells take up this cell-impermeable dye (right panels). Average ± SEM (n = 3) are shown.
Wounds were created in confluent HMEC-1 cells by means of the “Incucyte® wound maker”. Next, different concentrations of compound and PI were added and images were taken every 2 min for the duration of the experiment. The algorithm masks each phase-contrast image to identify the position of the wounded (cell-free) and unwounded (cell-occupied) zones. Relative wound density is calculated and visualized in time-course plots.

For another series, the system named is αβ-tubulin. The following applies: relative to prototypes 7 and 8; cited from earlier work.
Series [6] concerns tumor and endothelial cells. Details: method as in PMID 24773591. The following applies: relative to prototypes 7 and 8; cited from earlier work.
The mark [7] stands for this setting: mean ± SD of three independent experiments, 3 days of incubation.
Where [8] appears, read: mean ± SD of three independent experiments, 4 days.
Setting [9] is: mean ± SD of three independent experiments.

Read-outs that look alike come from different tables or passages of the source.

As to `COc1ccc(/C=C\c2cc(OC)c(OC)c(OC)c2)cc1OP(=O)(O)O` [CA-4P, reference compound], the IC50 in the series with MDA-MB-231 cells [1] worked out at 0.0021 ± 0.0003 µM; with HMEC-1 cells [2], 0.0029 ± 0.0001 µM; in the series with CEM cells it was 0.011 ± 0.001 µM; in the series with HeLa cells it was 0.013 ± 0.001 µM.
Consider `CCOc1ccccc1NC(C)=C1C(=O)CC(c2ccccc2)CC1=O` (stereo not drawn) [Compound 8], for which the IC50 in the series on A2780AD cells (Homo sapiens, A2780AD) came out at 0.111 ± 0.016 µM; in the series on MDA-MB-231 cells [1], 0.068 ± 0.005 µM; in the series on A2780 cells (Homo sapiens, A2780), 0.116 ± 0.008 µM; with HMEC-1 cells [2], 0.1 ± 0.02 µM; in the series on CEM cells, 0.19 ± 0.01 µM; in the series on HeLa cells, 0.18 µM. In the series on MDA-MB-231 cells [3], the cell cycle arrest entry is given as “no longer active”. The “apoptotic rate (apoptotic cells, caspase-3 substrate)” value in the series on MDA-MB-231 cells [4] stood at 9%. Moreover, in the series with HMEC-1 cells [5], the “lowest concentration inhibiting wound closure” value is recorded as 0.5 µM. Also, in the series with HMEC-1 cells [5] (at the lowest concentration inhibiting wound closure (0.5, 0.06 and 0.06 µM)), the “uptake of PI (toxicity)” value is on record as “No increased uptake of PI”.
In the case of `CCC(Nc1ccccc1O)=C1C(=O)CC(c2ccccc2)CC1=O` (stereo not drawn) [Compound 9], in the series on αβ-tubulin, the “fold less active in tubulin binding” value is 100 fold. Besides, the “fold less active in antiproliferative assays” value in series [6] is given as 100 fold.
`CC(Nc1cccc2cc(C)oc12)=C1C(=O)CC(c2ccccc2)CC1=O` (stereo not drawn) [Compound 14, 2-(1-((2-Methylbenzofuran-7-yl)amino)ethylidene)-5-phenylcyclohexane-1,3-dione] registered a melting point of 127 to 129 °C. The half-inhibitory concentration (IC50) with MDA-MB-231 cells [1] (setting [7]) came out at 0.053 ± 0.006 µM. The IC50 in the series on HMEC-1 cells [2] (setting [8]) came out at 0.065 ± 0.003 µM. Also, in the series on CEM cells (setting [9]), the IC50 came to 0.038 ± 0.001 µM. Also, in the series on HeLa cells (setting [7]), the IC50 was 0.16 ± 0.01 µM.
The compound `COC(=O)c1cc2cccc(NC(C)=C3C(=O)CC(c4ccccc4)CC3=O)c2o1` (stereo not drawn) [Compound 20, Methyl 7-((1-(2,6-dioxo-4-phenylcyclohexylidene)ethyl)amino)benzofuran-2-carboxylate] yielded a melting point of 178 to 180 °C. Further, the half-maximal inhibitory concentration (IC50) in the series on A2780AD cells (Homo sapiens, A2780AD) was 0.66 ± 0.05 µM. Further, the half-maximal inhibitory concentration (IC50) in the series with MDA-MB-231 cells [1] (setting [7]) amounted to 0.17 ± 0.01 µM. Moreover, the IC50 in the series on A2780 cells (Homo sapiens, A2780) worked out at 0.44 ± 0.02 µM. For the same compound, the IC50 with HMEC-1 cells [2] (setting [8]) was determined as 1.6 ± 0.6 µM. In addition, the IC50 in the series on CEM cells (setting [9]) amounted to 0.64 ± 0.36 µM. Moreover, the IC50 in the series on HeLa cells (setting [7]) is 0.89 ± 0.03 µM.
For `CNC(=O)c1cc2cccc(NC(C)=C3C(=O)CC(c4ccccc4)CC3=O)c2o1` (stereo not drawn) [Compound 21, 7-((1-(2,6-Dioxo-4-phenylcyclohexylidene)ethyl)amino)-N-methylbenzofuran-2-carboxamide], the melting point fell in the range of 108 to 110 °C. For the same compound, the IC50 with MDA-MB-231 cells [1] (setting [7]) is 1.5 ± 0.6 µM. In the series on HMEC-1 cells [2] (setting [8]), the IC50 was determined as 14 ± 11 µM. Further, the IC50 in the series on CEM cells (setting [9]) was 5.5 ± 1.7 µM. Also, the IC50 in the series on HeLa cells (setting [7]) worked out at 12 ± 6 µM.
The compound `CC(Nc1cccc2cc(CO)oc12)=C1C(=O)CC(c2ccccc2)CC1=O` (stereo not drawn) [Compound 22, 2-(1-((2-(Hydroxymethyl)benzofuran-7-yl)amino)ethylidene)-5-phenylcyclohexane-1,3-dione] registered a melting point of 120 to 122 °C. Further, the IC50 in the series with MDA-MB-231 cells [1] (setting [7]) turned out to be 0.015 ± 0.002 µM. The IC50 in the series on HMEC-1 cells [2] (setting [8]) amounted to 0.15 ± 0.05 µM. Further, the IC50 in the series on CEM cells (setting [9]) was found to be 0.04 ± 0.002 µM. For the same compound, the IC50 with HeLa cells (setting [7]) worked out at 0.14 ± 0.04 µM.
As for `CC(=O)O[C@H]1C(=O)[C@@]2(C)[C@H]([C@H](OC(=O)c3ccccc3)[C@]3(O)C[C@H](OC(=O)[C@H](O)[C@@H](NC(=O)c4ccccc4)c4ccccc4)C(C)=C1C3(C)C)[C@]1(OC(C)=O)CO[C@@H]1C[C@@H]2O` [Paclitaxel, reference compound], the IC50 in the series on A2780AD cells (Homo sapiens, A2780AD) was found to be 2.1 ± 0.3 µM; in the series on A2780 cells (Homo sapiens, A2780), 0.001 ± 0.0001 µM.
With `COc1cc([C@@H]2c3cc4c(cc3[C@H](O)[C@H]3COC(=O)[C@H]23)OCO4)cc(OC)c1OC` [Podophillotoxin, reference compound], the IC50 was 0.074 ± 0.012 µM in the series on A2780AD cells and 0.064 ± 0.009 µM in the series with A2780 cells.
